Results: ChEMBL document CHEMBL1201862, “PubChem BioAssay data set” (2004)
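Results reflect a 48-hour exposure of cells in 96-well plates to compound at five concentrations. At the GI50, growth is halved.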 Calls of active or inactive are those of the source. No stated cut-off is given here; in the data, active = GI50 up to about 1.1 µM and inactive = higher.

Key:
Experiment in all cases: NCI anticancer screen, dose series, 48 h
[1] = system: HOP-92
[2] = system: RXF 393
[3] = system: SK-MEL-5
[4] = system: SNB-19
[5] = system: SK-MEL-28
[6] = system: UO-31
[7] = system: ACHN
[8] = system: OVCAR-8
[9] = system: IGROV-1
[10] = system: TK-10
[11] = system: HCT-116
[12] = system: A549
[13] = system: UACC-257
[14] = system: M14
[15] = system: NCI-H522
[16] = system: HCC 2998

Row | Compound | GI50 [1] | GI50 [2] | GI50 [3] | GI50 [4] | GI50 [5] | GI50 [6] | GI50 [7] | GI50 [8] | GI50 [9] | GI50 [10] | GI50 [11] | GI50 [12] | GI50 [13] | GI50 [14] | GI50 [15] | GI50 [16]
1 | COc1cc2c(cc1OC)C(C(=O)c1cccc(OC)c1OC)C(=O)N(C)CC2 (stereo unspecified) | 65.5 µM (inactive) | > 100 µM (inactive) | > 100 µM (inactive) | > 100 µM (inactive) | > 100 µM (inactive) | > 100 µM (inactive) | > 100 µM (inactive) | > 100 µM (inactive) | > 100 µM (inactive) | > 100 µM (inactive) | > 100 µM (inactive) | > 100 µM (inactive) | > 100 µM (inactive) | > 100 µM (inactive) | > 100 µM (inactive) | 
2 | O=C(c1ccccn1)c1nc(-c2ccc(Cl)c(Cl)c2)nc2ccc(Cl)cc12 |  | 18.7 µM (inactive) | 51.9 µM (inactive) |  | > 100 µM (inactive) | 56.9 µM (inactive) | 44.3 µM (inactive) | > 100 µM (inactive) | 35 µM (inactive) | 67 µM (inactive) | 15.5 µM (inactive) | 41.6 µM (inactive) | > 100 µM (inactive) | > 100 µM (inactive) |  | > 100 µM (inactive)
3 | ONc1ncnc2[nH]cnc12 | > 100 µM (inactive) |  | > 100 µM (inactive) | > 100 µM (inactive) | > 100 µM (inactive) | > 100 µM (inactive) | > 100 µM (inactive) | > 100 µM (inactive) | > 100 µM (inactive) | > 100 µM (inactive) | > 100 µM (inactive) | > 100 µM (inactive) | > 100 µM (inactive) | > 100 µM (inactive) | > 100 µM (inactive) | > 100 µM (inactive)
4 | Nc1ccn([C@@H]2C[C@H](CO)[C@@H](O)[C@H]2O)c(=O)n1 |  | > 57.7 µM (inactive) | > 57.7 µM (inactive) | > 57.7 µM (inactive) | > 57.7 µM (inactive) | > 57.7 µM (inactive) | > 57.7 µM (inactive) | > 57.7 µM (inactive) | > 57.7 µM (inactive) | > 57.7 µM (inactive) | > 57.7 µM (inactive) | > 57.7 µM (inactive) | > 57.7 µM (inactive) | > 57.7 µM (inactive) | > 57.7 µM (inactive) | > 57.7 µM (inactive)
5 | Cc1c2ccncc2c(C)c2c1[nH]c1ccc(Cl)cc12 |  | 4.58 µM (inactive) | 4.75 µM (inactive) | 2.35 µM (inactive) | 5.69 µM (inactive) | 3.56 µM (inactive) | 1.26 µM (inactive) | 1.22 µM (inactive) | 2.86 µM (inactive) | 6.07 µM (inactive) | 1.07 µM (active) |  |  | 4.57 µM (inactive) | 2.36 µM (inactive) | 7.76 µM (inactive)
6 | COc1ccc(OC)c2[s+]snc12 |  | 72.4 µM (inactive) | 19 µM (inactive) | 65.8 µM (inactive) | 83.8 µM (inactive) | 29 µM (inactive) | 91.2 µM (inactive) | 31.7 µM (inactive) | > 100 µM (inactive) | > 100 µM (inactive) | 57.7 µM (inactive) | 40.1 µM (inactive) | 27.1 µM (inactive) | 63.2 µM (inactive) | 47.8 µM (inactive) | > 100 µM (inactive)
7 | COc1cc2c(c(OC)c1)C1(CC(CC#N)C2)SCCS1 (stereo unspecified) |  | > 100 µM (inactive) | 62.2 µM (inactive) | > 100 µM (inactive) | > 100 µM (inactive) | > 100 µM (inactive) | > 100 µM (inactive) | > 100 µM (inactive) | > 100 µM (inactive) | > 100 µM (inactive) | > 100 µM (inactive) | > 100 µM (inactive) | > 100 µM (inactive) | > 100 µM (inactive) | < 0.01 µM (active) | > 100 µM (inactive)
8 | CC1=C(C(=O)Nc2cc(=O)n(C)c(=O)n2C)C(c2ccco2)C(C(=O)Nc2cc(=O)n(C)c(=O)n2C)=C(C)N1 | 48.5 µM (inactive) | > 100 µM (inactive) | > 100 µM (inactive) | > 100 µM (inactive) | > 100 µM (inactive) | > 100 µM (inactive) | > 100 µM (inactive) | > 100 µM (inactive) | > 100 µM (inactive) | > 100 µM (inactive) |  | > 100 µM (inactive) | > 100 µM (inactive) | > 100 µM (inactive) | > 100 µM (inactive) | > 100 µM (inactive)
9 | O=C1CC2CCN(C(=O)c3ccccc3)CC2CCN1 (stereo unspecified) | > 100 µM (inactive) | > 100 µM (inactive) | > 100 µM (inactive) | > 100 µM (inactive) | > 100 µM (inactive) | > 100 µM (inactive) | > 100 µM (inactive) | > 100 µM (inactive) | > 100 µM (inactive) | > 100 µM (inactive) | > 100 µM (inactive) | > 100 µM (inactive) | > 100 µM (inactive) | > 100 µM (inactive) |  | > 100 µM (inactive)
